The values that follow come from patent US20140024662A1, “COMPOUNDS, SCREENS, AND METHODS OF TREATMENT” (Shanghai Institute of Organic Chemistry, priority 2006, published 2014).

In this assay the test system is FADD-deficient Jurkat cells. Nature of the assay: necroptosis assay: FADD-deficient Jurkat cells treated with TNFα, cell viability. The assay is classed as cell-based, human. The conditions noted are these: for Max Prot: max viability obtained in the presence of a compound; for Max Prot / activity in the necroptosis assay, in words: FADD-deficient Jurkat cells treated with TNFα. The source says: Herein we describe the structure activity analysis of Nec-5 analogs.

Setting [1] is: effective concentration for half-maximum response, inhibition of necroptosis in FADD-deficient Jurkat cells treated with TNFα, read-out: EC50.
[2] abbreviates: effective concentration for half-maximum response, inhibition of necroptosis in FADD-deficient Jurkat cells treated with TNFα.

Like-named read-outs stand apart in the source and are kept apart here.

For `CCc1c(C)sc2nc(SCC#N)n(-c3ccc4c(c3)OCO4)c(=O)c12` [Compound 128], the “Max Prot” value is reported as 100%. Moreover, the EC50 under setting [1] is 1.9 µM.
Turning to `CSc1nc2sc(C)c(C)c2c(=O)n1-c1ccc(OC(F)(F)F)cc1` [Compound 160], the concentration giving a half-maximal response (EC50) result under setting [2] was “inactive”.
Turning to `COc1ccc(-n2c(SCC#N)nc3sc4c(c3c2=O)CCCC4)cc1` [Compound 1, 3-p-methoxyphenyl-5,6-tetra-methylenothieno-[2,3-d]-pyrimidin-4-one-2-mercaptoethylcyanide], the “activity in the necroptosis assay, in words” value (shortened to “activity”) is recorded as “prevents the death” and the “Max Prot” value is 100%. The EC50 (Homo sapiens, Jurkat) was found to be 0.24 µM.
`COc1ccc(-n2c(SCCO)nc3sc4c(c3c2=O)CCC4)cc1` [Compound 103]: the “Max Prot” value was found to be 100%. Further, under setting [1], the EC50 is 7.14 µM.
For the compound `C#CCSc1nc2sc3c(c2c(=O)n1-c1ccc(OC)cc1)CCC3` [Compound 98], the “Max Prot” value was found to be 63.4%. The EC50 under setting [1] came out at 2.49 µM.
As to `CSc1nc2sc3c(c2c(=O)n1-c1ccc(F)cc1)CCCC3` [Compound 53], the “activity” value was “showed some activity” and the “Max Prot” value is on record as 61.2%. For the same compound, the EC50 under setting [1] came out at 1.57 µM.
For the compound `COc1ccc(-n2c([S+](C)[O-])nc3sc4c(c3c2=O)CCCC4)cc1` (stereo not drawn) [Compound 30], the “activity” value was “complete loss of activity”. In addition, the EC50 entry under setting [2] was “inactive”.
On to `CCCCCSc1nc2sc3c(c2c(=O)n1-c1ccc(OC)cc1)CCC3` [Compound 96], for which the 50% effective concentration (EC50) result under setting [2] is “inactive”.
With `C#CCSc1nc2sc(C)c(C)c2c(=O)n1-c1ccc2c(c1)OCO2` [Compound 176], under setting [2], the EC50 result was “inactive”.
For `CSc1nc2sc3c(c2c(=O)n1-c1ccc2c(c1)OCO2)CCC3` [Compound 132], the “activity” value was “inactive”. In addition, the EC50 result under setting [2] is “inactive”.
For `COc1ccc(-n2c(SC)nc3sc(C(C)C)c(C)c3c2=O)cc1` [Compound 85], the EC50 result under setting [2] was “inactive”.
For `CSc1nc2sc(C)c(C)c2c(=O)n1-c1ccc2c(c1)OCO2` [Compound 130], the “Max Prot” value is 67.0%. The EC50 under setting [1] turned out to be 1.11 µM.
Regarding `CSc1nc2sc3c(c2c(=O)n1-c1ccc(C)c(C)c1)CCCC3` [Compound 55], the “Max Prot” value turned out to be 38.0%. In addition, the EC50 under setting [1] came out at 16.7 µM.
Regarding `COc1ccc(-n2c(SC)nc3sc(C)c(C)c3c2=O)cc1` [Compound 81], the EC50 result under setting [2] was “inactive”.
For the compound `COc1ccc(-n2c(SC(C)=O)nc3sc4c(c3c2=O)CCCC4)cc1` [Compound 21], the EC50 result under setting [2] is “inactive”.
Consider `C#CCSc1nc2sc(CCC)c(C)c2c(=O)n1-c1ccc(OC)cc1` [Compound 108], for which the EC50 entry under setting [2] was “inactive”.
Consider `N#CCSc1nc2sc3c(c2c(=O)n1-c1ccc(Cl)cc1)CCCC3` [Compound 41], for which the “activity” value is “activity significantly decreased” and the “Max Prot” value is 55.0%. Besides, the EC50 under setting [1] was 8.5 µM.
Take `CSc1nc2sc3c(c2c(=O)n1-c1ccc(Br)cc1)CCCC3` [Compound 54]: the half-maximal effective concentration (EC50) entry under setting [2] was “inactive”.
Still for that read-out and setting: the result for `N#CCSc1nc2sccc2c(=O)n1-c1ccccc1` [Compound 162] reads “inactive”.
As to `C=CCSc1nc2sc3c(c2c(=O)n1-c1ccccc1)CCCC3` [Compound 170], the EC50 entry under setting [2] was “inactive”.
